# Test results: patent publication US20020132812A1, “Oral hypoglycaemic agents” (priority 2000, published 2002)
# Structures can show the parent of a compound that is named as a salt.
row,SMILES,melting point
1,"C(/C1=NCCN1)=C(/c1cccc(C2OCCO2)c1)c1ccccn1 (as salt: fumarate) [Example 32, 2-[2-(4,5-Dihydro-1H-imidazol-2-yl)-1-(3-[1,3]dioxolan-2-yl-phenyl)-vinyl]-pyridine]",98 to 98.5 °C
2,"c1ccc(C(CC2=NCCN2)c2cccc(C3OCCO3)c2)nc1 (stereo not shown) (as salt: fumarate) [Example 33, 2-[2-(4,5-Dihydro-1H-imidazol-2-yl)-1-(3-[1,3]dioxolan-2-yl-phenyl)ethyl]pyridine]",162 to 162.5 °C
3,"O=Cc1cccc(C(CC2=NCCN2)c2ccccn2)c1 (stereo not shown) (as salt: fumarate) [Example 34, 3-[2-(4,5-Dihydro-1H-imidazol-2-yl)-1-pyridin-2-yl-ethyl]-benzaldehyde]",138 to 139 °C
4,"OCc1cccc(C(CC2=NCCN2)c2ccccn2)c1 (stereo not shown) (as salt: fumarate) [Example 35, 3-[2-(4,5-Dihydro-1H-imidazol-2-yl)-1-pyridin-2-yl-ethyl]-phenyl-methanol]",114 to 115 °C
5,"Oc1cc2c(c(C(CC3=NCCN3)c3ccccn3)c1)OCC2 (stereo not shown) (as salt: hydroiodid) [Example 30, 7-[2-(4,5-Dihydro-1H-imidazol-2-yl)-1-pyridin-2-yl-ethyl]-2,3-dihydro-benzofuran-5-ol]",186 to 187 °C
6,"FC(F)(F)c1cccc(C(CC2=NCCN2)c2ccc3ccccc3n2)c1 (stereo not shown) [Example 38, ethyl compound, 2-[2-(4,5-Dihydro-1H-imidazol-2-yl)-1-(3-trifluoromethyl-phenyl)-ethyl]-quinoline]",92 to 93 °C

# Other lines, results leading:
row,melting point,SMILES
1,154 to 155 °C,"Nc1cccc(C(CC2=NCCN2)c2ccccn2)c1 (stereo not shown) (as salt: fumarate) [Example 39, 3-[2-(4,5-Dihydro-1H-imidazol-2-yl)-1-pyridin-2-yl-ethyl]-phenylamine]"
2,166 to 167 °C,"c1ccc(C(CC2=NCCN2)c2cccc3c2OCC3)nc1 (stereo not shown) (as salt: fumarate) [Example 40, 1-(2,3-Dihydro-7-benzofuranyl)-2-(4,5-dihydro-2-imidazolyl)-1-(2-pyridyl)-ethane]"
3,76.5 °C,"FC(F)(F)c1cccc(/C(=C/C2=NCCN2)c2ccc3ccccc3n2)c1 [Example 38, vinyl compound, 2-[2-(4,5-Dihydro-1H-imidazol-2-yl)-1-(3-trifluoromethyl-phenyl)-vinyl]-quinoline]"
4,143 to 144 °C,"Nc1cc2c(c(C(CC3=NCCN3)c3ccccn3)c1)OCC2 (stereo not shown) [Example 41, 7-[2-(4,5-Dihydro-1H-imidazol-2-yl)-1-pyridin-2-yl-ethyl]-2,3-dihydro-benzofuran-5-ylamine]"
